In DBAASP:
≈ marks a conversion by molar mass, not a printed value. Where “and” joins values, the source holds several entries; their conditions need not be identical. Identical values can stand only once.

Legend:
Assay in all cases: ≥ marks a high value that may be exact or a test limit, other limits are often not marked, values filed in µg/mL are converted to µM
[1] = tested on: Aspergillus fumigatus
[2] = tested on: Fusarium culmorum
[3] = tested on: Fusarium oxysporum
[4] = tested on: Saccharomyces cerevisiae
[5] = tested on: Staphylococcus aureus
[6] = tested on: Trichoderma viride
[7] = tested on: Trichophyton mentagrophytes
[8] = tested on: Acinetobacter calcoaceticus
[9] = tested on: Bacillus cereus
[10] = tested on: Bacillus pumilus
[11] = tested on: Candida albicans ATCC 2002
[12] = tested on: Escherichia coli ATCC 25922
[13] = tested on: Pseudomonas aeruginosa
[14] = tested on: Shigella dysenteriae
[15] = tested on: Staphylococcus aureus ATCC 2592
[16] = tested on: Bacillus licheniformis X39
[17] = tested on: Enterococcus faecalis 981
[18] = tested on: Psychrobacter faecalis X29
[19] = tested on: Rhodococcus rhodochrous X15
[20] = tested on: Serratia rubidaea X01
[21] = tested on: Staphylococcus aureus ATCC 25923
[22] = tested on: Staphylococcus carnosus KHS
[23] = tested on: Bacillus subtilis ATCC 23857
[24] = tested on: Bacillus subtilis CCT 2576
[25] = tested on: Bacillus subtilis
[26] = tested on: Candida albicans ATCC 14053
[27] = tested on: Candida glabrata ATCC 2001
[28] = tested on: Candida krusei ATCC 6258
[29] = tested on: Candida parapsilosis ATCC 22019
[30] = tested on: Candida tropicalis ATCC 750
[31] = tested on: Cronobacter sakazakii ATCC 29544
[32] = tested on: Escherichia coli ML-35
[33] = tested on: Escherichia coli
[34] = tested on: Klebsiella pneumoniae ATCC 700603
[35] = tested on: Klebsiella pneumoniae
[36] = tested on: Pseudomonas aeruginosa ATCC 15422
[37] = tested on: Pseudomonas aeruginosa ATCC 27853
[38] = tested on: Salmonella typhimurium
[39] = tested on: Staphylococcus aureus ATCC 29213
[40] = tested on: Staphylococcus aureus ATCC 6538
[41] = tested on: Staphylococcus epidermidis ATCC 12228
[42] = tested on: Staphylococcus epidermidis

CC[C@H](C)[C@@H]1NC(=O)[C@@H]2CSSC[C@@H](C(=O)N[C@@H](CCCN=C(N)N)C(=O)N[C@@H](CCCN=C(N)N)C(=O)O)NC(=O)[C@H]([C@@H](C)O)NC(=O)[C@@H]3CSSC[C@H](NC(=O)[C@H](C)NC(=O)[C@H](C)NC(=O)[C@H](Cc4cnc[nH]4)NC(=O)CNC(=O)[C@H](C(C)C)NC(=O)CNC(=O)[C@H](Cc4ccccc4)NC(=O)[C@H](C)NC(=O)[C@H](CO)NC(=O)[C@H](CC(C)C)NC(=O)[C@H](CC(C)C)NC(=O)[C@H](CC(=O)O)NC(=O)[C@@H](NC(=O)[C@@H](NC(=O)[C@H](C)N)[C@@H](C)O)CSSC[C@H](NC(=O)[C@H](Cc4ccc(O)cc4)NC(=O)CNC(=O)CNC(=O)[C@H](CCCN=C(N)N)NC(=O)[C@H](Cc4ccc(O)cc4)NC(=O)CNC(=O)[C@H](Cc4cnc[nH]4)NC(=O)CNC1=O)C(=O)N[C@@H](CC(N)=O)C(=O)N[C@@H](CO)C(=O)N[C@@H](CCCCN)C(=O)N[C@@H](C)C(=O)N[C@@H](C(C)C)C(=O)N3)C(=O)N[C@@H](C)C(=O)N[C@@H](C)C(=O)N[C@@H](Cc1cnc[nH]1)C(=O)N2 [ATCDLLSAFGVGHAACAAHCIGHGYRGGYCNSKAVCTCRR]
MIC [1]: 17.7 µM (≈ 72.4 µg/mL)
MIC [2]: 2.21 µM (≈ 9.04 µg/mL)
MIC [3]: 4.42 µM (≈ 18.1 µg/mL)
MIC [4]: ≥ 35.4 µM
MIC [5]: 1.1 µM (≈ 4.52 µg/mL)
MIC [6]: 4.42 µM (≈ 18.1 µg/mL)
MIC [7]: ≥ 35.4 µM

CC[C@H](C)[C@H](NC(=O)[C@@H]1CCCN1C(=O)[C@H](Cc1ccccc1)NC(=O)[C@@H](N)Cc1ccccc1)C(=O)N[C@H](C(=O)NCC(=O)N[C@@H](CCCCN)C(=O)N[C@@H](CC(C)C)C(=O)N[C@@H](CC(C)C)C(=O)N[C@@H](Cc1ccccc1)C(=O)NCC(=O)N[C@@H](CC(C)C)C(=O)N[C@@H](CO)C(=O)NCC(=O)N[C@@H](CC(C)C)C(=O)N[C@@H](CC(C)C)C(N)=O)C(C)C [FFPIVGKLLFGLSGLL]
MIC [8]: 8.72 µM (≈ 15 µg/mL)
MIC [9]: 8.72 µM (≈ 15 µg/mL)
MIC [10]: 2.91 µM (≈ 5 µg/mL)
MIC [11]: 0.726 µM (≈ 1.25 µg/mL)
MIC [12]: 0.726 µM (≈ 1.25 µg/mL)
MIC [13]: 2.91 µM (≈ 5 µg/mL)
MIC [14]: 2.91 µM (≈ 5 µg/mL)
MIC [15]: 0.726 µM (≈ 1.25 µg/mL)

CC(C)C[C@H](NC(=O)[C@H](CC(C)C)NC(=O)CNC(=O)[C@H](CCCCN)NC(=O)[C@H](CC(C)C)NC(=O)[C@H](CC(C)C)NC(=O)[C@H](CC(N)=O)NC(=O)CNC(=O)[C@@H](NC(=O)[C@H](Cc1ccccc1)NC(=O)[C@@H]1CCCN1C(=O)[C@H](CC(C)C)NC(=O)[C@@H](N)Cc1ccccc1)C(C)C)C(N)=O [FLPFVGNLLKGLL]
MIC [16]: 19 µM (≈ 27.2 µg/mL)
MIC [17]: 19 µM (≈ 27.2 µg/mL)
MIC [18]: ≥ 75 µM
MIC [19]: 9 µM (≈ 12.9 µg/mL)
MIC [20]: ≥ 75 µM
MIC [21]: 9 µM (≈ 12.9 µg/mL)
MIC [22]: 19 µM (≈ 27.2 µg/mL)

CC[C@H](C)[C@H](N)C(=O)N[C@@H](CC(=O)O)C(=O)N[C@@H](Cc1c[nH]c2ccccc12)C(=O)N[C@@H](CCCCN)C(=O)N[C@@H](CCCCN)C(=O)N[C@@H](CC(C)C)C(=O)N[C@@H](CC(C)C)C(=O)N[C@@H](CC(=O)O)C(=O)N[C@@H](C)C(=O)N[C@@H](C)C(=O)N[C@@H](CCCCN)C(=O)N[C@@H](CCC(N)=O)C(=O)N[C@H](C(=O)N[C@@H](CC(C)C)C(N)=O)[C@@H](C)CC [IDWKKLLDAAKQIL]
MIC [23]: 8 µM and 4 µM
MIC [24]: 2.42 µM (≈ 4 µg/mL)
MIC [25]: 7.55 µM (≈ 12.5 µg/mL)
MIC [26]: 8 µM (≈ 13.2 µg/mL)
MIC [27]: 8 µM (≈ 13.2 µg/mL)
MIC [28]: 8 µM (≈ 13.2 µg/mL)
MIC [29]: ≥ 64 µM
MIC [30]: 8 µM (≈ 13.2 µg/mL)
MIC [31]: ≥ 64 µM
MIC [32]: ≥ 32 µM
MIC [33]: 45.3 µM (≈ 75 µg/mL)
MIC [34]: 64 µM (≈ 106 µg/mL)
MIC [35]: 22.7 µM (≈ 37.5 µg/mL)
MIC [36]: 4.83 µM (≈ 8 µg/mL)
MIC [37]: 128 µM (≈ 212 µg/mL)
MIC [13]: > 60.4 µM
MIC [38]: ≥ 60.4 µM
MIC [14]: ≥ 45.3 µM
MIC [39]: 32 µM (≈ 52.9 µg/mL)
MIC [40]: 9.06 µM (≈ 15 µg/mL)
MIC [5]: 11.4 µM (≈ 18.8 µg/mL)
MIC [41]: 32 µM and > 16 µM
MIC [42]: ≥ 60.4 µM
